# Patent publication US9763974B2, “Galacto-rhamnogalacturonate compositions for the treatment of diseases associated with elevated inducible nitric oxide synthase” (Galectin Therapeutics, Inc., priority 2012, dated 2017)
# Tested on: inducible nitric oxide synthase (iNOS) in liver tissue
# Assay: iNOS immunostaining and digital morphometry in liver tissue, STAM mouse model of steatohepatitis
# Format: in vivo
# Settings: STAM mice
# Protocol: The experimental model used in this example is the mouse in which diabetes was induced and a high fat diet was administered, a model that has been called STAM mice. Diabetes is induced immediately following birth with a single injection of streptozotocin and then four weeks later the mice are started on a high fat diet. This is a proven chronic inflammatory model in which the mice consistently develop steatohepatitis with hepatocyte fat accumulation, evidence of hepatocyte toxicity, portal and lobular inflammatory infiltrates, peri-sinusoidal fibrosis, advanced fibrosis with nodule formation, cirrhosis, and ultimately hepatocellular carcinoma in a certain percentage of animals.
# GR-MD-02, produced as described in Example 1, was given in a dose of 60 mg/kg twice weekly intravenously for four (4) weeks starting at week 9 after initiation of the model through week 12.
# GR-MD-02, produced as described in Example 1, was also given in a dose of 120 mg/kg, 60 mg/kg, 30 mg/kg, 10 mg/kg once weekly intravenously for six weeks at the each of the starting at week six of the model and ending at week 12.
substance,measurement,setting,value
galacto-rhamnogalacturonate [GR-MD-02],quantification of iNOS immunoreactivity (FIG. 3),10 mg/kg once weekly intravenously for six weeks,statistically significant reductions
same,quantification of iNOS immunoreactivity (FIG. 3),30 mg/kg once weekly intravenously for six weeks,statistically significant reductions
same,quantification of iNOS immunoreactivity (FIG. 1B),"60 mg/kg twice weekly intravenously for 4 weeks, week 9 through week 12",statistically significant reduction
same,amount of iNOS detected in liver tissue (FIG. 1A),"60 mg/kg twice weekly intravenously for 4 weeks, week 9 through week 12, vs vehicle-treated control",markedly reduced
same,amount of iNOS detected in liver tissue (FIG. 2),"10, 30, 60 or 120 mg/kg once weekly intravenously for six weeks, week 6 to week 12, vs vehicle-treated control",reduced
same,quantification of iNOS immunoreactivity (FIG. 3),various once weekly intravenous doses (10-120 mg/kg) for six weeks,reduction of iNOS immunoreactivity
